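The compound was tested at five concentrations on cells cultured in 96-well plates, with a 48-hour exposure period. TGI is the concentration that stops growth completely.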

Data on nine compounds can be found in PubChem BioAssay (NCI).

Common to all, as to experiment: inhibition of tumour cell growth, NCI panel, 48 h
The test system of assay [1] is UACC-62 melanoma.
The test system of assay [2] is OVCAR-4 ovarian.
For assay [3], the system named is NCI/ADR-RES ovarian.
Assay [4] concerns T-47D breast.
Assay [5] has as its system IGROV1 ovarian.
In assay [6] the test system is TK-10 renal.
Assay [7] concerns SK-MEL-28 melanoma.
In assay [8] the test system is K-562 leukemia.
The subject of assay [9] is UACC-257 melanoma.
Assay [10] relates to KM12 colon.
Assay [11] concerns SNB-19 CNS.
For assay [12], the system named is RXF 393 renal.
Assay [13] concerns M14 melanoma.
In assay [14] the test system is U251 CNS.
Assay [15] has as its system HOP-62 NSCLC.
For assay [16], the system named is HOP-92 NSCLC.

Turning to `COc1cc2c(cc1OC)C(=O)N(NC1=NCCN1)C2=O`, the TGI in [1], in assay [2], in assay [3], in assay [4], in [5] and in assay [6] was above 100 µM throughout. The TGI in [7], in [8], in [9], in [10], in assay [11] and in [12] was above 100 µM in each case. Moreover, the TGI in assay [13], in assay [14] and in [15] was above 100 µM each time.
Consider `CC1=C(C(=O)OC(C)C)C(c2ccccc2C(F)(F)F)C(C(=O)OC(CO[N+](=O)[O-])CO[N+](=O)[O-])=C(C)N1` (configuration not stated), for which the TGI in assay [1] was 20.1 µM; in [2] it was 28.5 µM; in assay [3] it was 30.6 µM; in assay [4], above 100 µM; in assay [5], 25.9 µM; in assay [6], above 100 µM. Besides, the TGI was 55.3 µM in assay [7]; 41.7 µM in [8]; 18.5 µM in [10]; above 100 µM in [11]; 24.7 µM in [12]; 23.9 µM in [13]. The TGI in assay [14] is 29 µM; in assay [15], 29.5 µM.
Regarding `CC(C)(C)OC(=O)N(CCCCNCc1ccc2ccccc2c1)CCCNCc1ccc2ccccc2c1`, the TGI is 3.08 µM in assay [1]; 3.19 µM in [2]; 3.02 µM in [3]; 3.44 µM in assay [4]; 3.21 µM in assay [5]; 3.07 µM in assay [6]. Further, the TGI in [7] came out at 3.39 µM; in assay [8], 1.11 µM; in assay [9], 3.42 µM; in [10], 2.73 µM; in [16], 3.18 µM; in assay [11], 3.22 µM. The TGI came to 3.49 µM in assay [14] and 3.87 µM in [15].
With `COc1ccc(NC2CC(C)N(C(=O)c3ccccc3)O2)cc1` (configuration not stated), the TGI in assay [2], in assay [3], in [4], in assay [5], in assay [6] and in [7] was above 10 µM each time. The TGI in assay [8], in assay [9], in [11], in assay [12], in [13] and in [15] was above 10 µM throughout.
Consider `C/C(=N\Nc1nc2ccccc2s1)c1cc(C)ncn1`, for which the TGI in assay [1] was above 32.8 µM; in assay [2], above 39.8 µM; in [3], 4.91 µM; in assay [4], above 100 µM; in assay [5], 20.5 µM; in assay [6] it was above 100 µM. For the same compound, the TGI in assay [7] was above 55.8 µM; in assay [9], above 27.2 µM; in assay [10] it was 14.2 µM; in assay [16] it was above 30.6 µM; in assay [11], 61.5 µM; in assay [12], 20 µM. Moreover, the TGI in assay [13] is 25.7 µM; in assay [14], above 49.6 µM; in [15] it was 18.3 µM.
As to `CC(=O)c1sc(=N)n(-c2c(C)cccc2C)c1C`, the TGI in assay [1], in [2], in assay [3], in assay [4], in [5] and in assay [6] was above 100 µM in each case. The TGI in assay [7], in [8], in [10], in assay [11], in [12] and in assay [13] was above 100 µM in each case. In addition, the TGI in assay [14] and in assay [15] was above 100 µM in each case.
For `N#Cc1sc2c(c1O)c(=O)n(-c1ccccc1)c(=S)n2-c1ccccc1`, the TGI in assay [1], in [2], in assay [4], in assay [5], in [6] and in assay [7] was above 100 µM each time. Besides, the TGI in assay [8], in assay [9], in [10], in assay [16], in [11] and in assay [12] was above 100 µM each time. For the same compound, the TGI in [13] and in assay [14] was above 100 µM in each case.
Regarding `C/C(=N\NC(=S)NCc1ccccc1)c1nc2ncccc2[nH]1`, the TGI in [1] was 27.1 µM; in assay [2], 83 µM; in assay [3], 78.8 µM; in assay [4], 43.3 µM; in [5], 34.1 µM; in assay [6] it was 73.4 µM. Moreover, the TGI was 37.4 µM in [7]; 41.5 µM in [8]; 22.1 µM in assay [9]; 21.5 µM in assay [10]; 22.5 µM in assay [16]; 50.2 µM in [11]. The TGI was 19.8 µM in [13], 19.4 µM in assay [14] and 26.2 µM in assay [15].
For the compound `C=CCN1CN(c2ccccc2)C2(CCN(CCCC3(c4ccc(F)cc4)OCCO3)CC2)C1=O`, the TGI came out at 34.5 µM in [1]; 28.2 µM in assay [3]; 40.3 µM in assay [4]; 39.4 µM in assay [5]; 33.5 µM in assay [6]; 30.8 µM in [7]. Further, the TGI in assay [8] was 25.4 µM; in assay [9] it was 33.3 µM; in [10] it was 29.8 µM; in assay [11], 39.9 µM; in assay [12], 28.1 µM; in assay [13], 30.6 µM. The TGI in [14] was 29.4 µM; in assay [15], 36 µM.
